Data published in US20090325964A1, “Piperazine Metabotropic Glutamate Receptor 5 (MGLUR5) Negative Allosteric Modulators For Anxiety/Depression” (Wyeth, priority 2008, published 2009).

Target: T1, rat mGluR5 receptor (Rattus norvegicus, UniProt P31424)
T1 construct: expressed in transfected cells; host or cells: HEK-293
Assay: [3H]-MPEP displacement binding assay, HEK-293 cell membranes expressing rat mGluR5
Settings: Biological Activity, Table 2A; for inhibition at 10 µM: @ 10 μM compound, read-out: PCT INHIB (%) @ 10 μM; for Ki: read-out: Median Ki
Summary of the method: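 Membranes from HEK-293 cells expressing rat mGluR5 (12-25 μg protein), incubated 60 min at room temperature with 4 nM [3H]-MPEP in 50 mM Tris pH 7.5, then filtered. Nonspecific binding defined with 10 μM MPEP.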

T1 sequence (P31424 21-1203): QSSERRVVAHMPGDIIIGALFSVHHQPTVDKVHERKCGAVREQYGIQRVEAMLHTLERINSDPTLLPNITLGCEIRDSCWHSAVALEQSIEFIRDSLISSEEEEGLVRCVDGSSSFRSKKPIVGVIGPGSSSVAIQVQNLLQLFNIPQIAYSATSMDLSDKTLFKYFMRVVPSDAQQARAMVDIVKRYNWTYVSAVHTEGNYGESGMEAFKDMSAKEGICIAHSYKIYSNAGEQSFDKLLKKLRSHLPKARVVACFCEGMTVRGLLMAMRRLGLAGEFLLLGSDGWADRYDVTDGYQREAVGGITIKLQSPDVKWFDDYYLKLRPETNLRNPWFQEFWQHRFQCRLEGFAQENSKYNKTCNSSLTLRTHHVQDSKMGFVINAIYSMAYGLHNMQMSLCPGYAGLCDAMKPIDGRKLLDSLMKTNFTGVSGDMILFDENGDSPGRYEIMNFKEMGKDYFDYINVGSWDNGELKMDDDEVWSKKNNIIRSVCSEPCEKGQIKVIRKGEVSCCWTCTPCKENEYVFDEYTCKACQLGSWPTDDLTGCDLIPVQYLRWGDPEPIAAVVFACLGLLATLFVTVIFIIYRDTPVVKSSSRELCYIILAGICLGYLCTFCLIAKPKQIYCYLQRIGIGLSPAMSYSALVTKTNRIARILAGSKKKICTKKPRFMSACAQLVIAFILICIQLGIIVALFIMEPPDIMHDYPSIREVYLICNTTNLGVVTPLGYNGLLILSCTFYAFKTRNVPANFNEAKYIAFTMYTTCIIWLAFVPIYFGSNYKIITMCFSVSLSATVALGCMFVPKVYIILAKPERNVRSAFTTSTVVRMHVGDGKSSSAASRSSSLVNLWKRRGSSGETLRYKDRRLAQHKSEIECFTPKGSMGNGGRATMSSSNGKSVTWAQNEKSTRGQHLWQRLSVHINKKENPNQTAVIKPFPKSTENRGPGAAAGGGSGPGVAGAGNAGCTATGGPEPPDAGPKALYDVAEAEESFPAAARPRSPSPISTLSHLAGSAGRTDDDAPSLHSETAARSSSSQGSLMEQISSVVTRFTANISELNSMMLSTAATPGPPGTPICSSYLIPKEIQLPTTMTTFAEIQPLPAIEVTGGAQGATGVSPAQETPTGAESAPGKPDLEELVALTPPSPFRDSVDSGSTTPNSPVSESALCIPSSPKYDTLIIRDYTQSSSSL

Compound	inhibition at 10 µM [%]	Ki [µM]
O=C(c1cccc(C#Cc2ccccn2)c1)N1CCN(c2ncc(O)cn2)CC1 [Compound 99, 2-{4-[3-(pyridin-2-ylethynyl)benzoyl]piperazin-1-yl}pyrimidin-5-ol]	64	1.45
Cc1cc(C)nc(N2CCN(C(=O)c3cccc(C#Cc4ccccn4)c3)CC2)n1 [Compound 100, 4,6-dimethyl-2-{4-[3-(pyridin-2-ethynyl)benzoyl]piperazin-1-yl}pyrimidine]	55	2.16
COc1cccnc1N1CCN(C(=O)c2cccc(C#Cc3ccccn3)c2)CC1 [Compound 101, 1-(3-methoxypyridin-2-yl)-4-[3-(pyridin-2-ylethynyl)benzoyl]piperazine]	52	2.35
COc1nsnc1N1CCN(C(=O)c2cccc(C#Cc3ccccn3)c2)CC1 [Compound 102, 1-(4-methoxy-1,2,5-thiadiazol-3-yl)-4-[3-(pyridin-2-ylethynyl)benzoyl]piperazine]	92	0.08
Cc1cnc(C)c(N2CCN(C(=O)c3cccc(C#Cc4ccccn4)c3)CC2)n1 [Compound 103, 2,5-dimethyl-3-{4-[3-(pyridin-2-ylethynyl)benzoyl]piperazin-1-yl}pyrazine]	16	–
O=C(c1cccc(C#Cc2ccccn2)c1)N1CCN(c2cncc(Cl)n2)CC1 [Compound 104, 2-chloro-6-{4-[3-(pyridin-2-ylethynyl)benzoyl]piperazin-1-yl}pyrazine]	71	1.46
CC1CN(C(=O)c2cccc(C#Cc3ccccn3)c2)CCN1c1ccccn1 (stereo not drawn) [Compound 105, 2-methyl-1-pyridin-2-yl-4-[3-(pyridin-2-ylethynyl)benzoyl]piperazine]	58	0.826
O=C(c1cccc(C#Cc2ccccn2)c1)N1CCN(c2nccc(-c3ccccc3)n2)CC1 [Compound 106, 4-phenyl-2-{4-[3-(pyridin-2-ylethynyl)benzoyl]piperazin-1-yl}pyrimidine]	86	0.00219
O=C(c1cccc(C#Cc2ccccc2)c1)N1CCN(c2ccc(C(F)(F)F)cn2)CC1 [Compound 108, 1-[3-(phenylethynyl)benzoyl]-4-[5-(trifluoromethyl)pyridin-2-yl]piperazine]	0	–
Cc1cccc(N2CCN(C(=O)c3cccc(C#Cc4ccccc4)c3)CC2)n1 [Compound 110, 1-(6-methylpyridin-2-yl)-4-[3-(phenylethynyl)benzoyl]piperazine]	68	3.41
Cc1cc(C)nc(N2CCN(C(=O)c3cccc(C#Cc4ccccc4)c3)CC2)n1 [Compound 111, 4,6-dimethyl-2-{4-[3-(phenylethynyl)benzoyl]piperazin-1-yl}pyrimidine]	0	–
COc1ccc(C(=O)N2CCN(c3ncccn3)CC2)cc1C#Cc1ccccc1 [Compound 112, 2-{4-[4-methoxy-3-(phenylethynyl)benzoyl]piperazin-1-yl}pyrimidine]	90	0.0625
COc1ccc(C(=O)N2CCN(c3ccc(C#N)cn3)CC2)cc1C#Cc1ccccc1 [Compound 113, 6-{4-[4-methoxy-3-(phenylethynyl)benzoyl]piperazin-1-yl}nicotinonitrile]	81	0.357
COc1ccc(C(=O)N2CCN(c3ccc(C(F)(F)F)cn3)CC2)cc1C#Cc1ccccc1 [Compound 114, 1-[4-methoxy-3-(phenylethynyl)benzoyl]-4-[5-(trifluoromethyl)pyridin-2-yl]piperazine]	26	–
COc1ccc(C(=O)N2CCN(c3cc(C)ccn3)CC2)cc1C#Cc1ccccc1 [Compound 115, 1-[4-methoxy-3-(phenylethynyl)benzoyl]-4-(4-methylpyridin-2-yl]piperazine]	93	0.00315
COc1ccc(C(=O)N2CCN(c3cccc(C)n3)CC2)cc1C#Cc1ccccc1 [Compound 116, 1-[4-methoxy-3-(phenylethynyl)benzoyl]-4-(6-methylpyridin-2-yl]piperazine]	77	0.853
COc1ccc(C(=O)N2CCN(c3cccc(C(F)(F)F)n3)CC2)cc1C#Cc1ccccc1 [Compound 117, 1-[4-methoxy-3-(phenylethynyl)benzoyl]-4-[6-(trifluoromethyl)pyridin-2-yl]piperazine]	35	–
COc1ccc(C(=O)N2CCN(c3ncccc3C#N)CC2)cc1C#Cc1ccccc1 [Compound 118, 2-{4-[4-methoxy-3-(phenylethynyl)benzoyl]piperazin-1-yl}nicotinonitrile]	78	1.76
COc1ccc(C(=O)N2CCN(c3nc(C)cc(C)n3)CC2)cc1C#Cc1ccccc1 [Compound 119, 2-{4-[4-methoxy-3-(phenylethynyl)benzoyl]piperazin-1-yl}-4,6-dimethylpyrimidine]	35	–

Next, values leading:

inhibition at 10 µM [%]	Ki [µM]	Compound
49	2.89	O=C(c1ccnc(C#Cc2ccccc2)c1)N1CCN(c2ncccn2)CC1 [Compound 120, 2-{4-[2-(phenylethynyl)isonicotinoyl]piperazin-1-yl}pyrimidine]
72	1.13	O=C(c1ccnc(C#Cc2ccccc2)c1)N1CCN(c2ccccn2)CC1 [Compound 121, 1-[2-(phenylethynyl)isonicotinoyl]-4-pyridin-2-ylpiperazine]
0	–	N#Cc1ccc(N2CCN(C(=O)c3ccnc(C#Cc4ccccc4)c3)CC2)nc1 [Compound 122, 6-{4-[2-(phenylethynyl)isonicotinoyl]piperazin-1-yl}nicotinonitrile]
0	–	O=C(c1ccnc(C#Cc2ccccc2)c1)N1CCN(c2ccc(C(F)(F)F)cn2)CC1 [Compound 123, 1-[2-(phenylethynyl)isonicotinoyl]-4-[5-(trifluoromethyl)pyridin-2-yl]piperazine]
84	0.338	Cc1ccnc(N2CCN(C(=O)c3ccnc(C#Cc4ccccc4)c3)CC2)c1 [Compound 124, 1-(4-methylpyridin-2-yl)-4-[2-(phenylethynyl)isonicotinoyl]piperazine]
30	–	Cc1cccc(N2CCN(C(=O)c3ccnc(C#Cc4ccccc4)c3)CC2)n1 [Compound 125, 1-(6-methylpyridin-2-yl)-4-[2-(phenylethynyl)isonicotinoyl]piperazine]
54	–	O=C(c1ccnc(C#Cc2ccccc2)c1)N1CCN(c2cccc(C(F)(F)F)n2)CC1 [Compound 126, 1-[2-(phenylethynyl)isonicotinoyl]-4-[6-(trifluoromethyl)pyridin-2-yl]piperazine]
36	–	O=C(c1ccnc(C#Cc2ccccc2)c1)N1CCN(c2cnccn2)CC1 [Compound 127, 2-{4-[2-(phenylethynyl)isonicotinoyl]piperazin-1-yl}pyrazine]
48	–	N#Cc1ccc(N2CCN(C(=O)c3cccc(C#Cc4ccccc4)c3)CC2)nc1 [Compound 128, 6-{4-[3-(phenylethynyl)benzoyl]piperazin-1-yl}nicotinonitrile]
45	–	O=C(c1cccc(C#Cc2ccccc2)c1)N1CCN(c2ncccc2C(F)(F)F)CC1 [Compound 129, 1-[3-(phenylethynyl)benzoyl]-4-[3-(trifluoromethyl)pyridin-2-yl]piperazine]
47	–	O=C(c1cncc(C#Cc2ccccc2)c1)N1CCN(c2ncccn2)CC1 [Compound 130, 2-(4-{[5-(phenylethynyl)pyridin-3-yl]carbonyl}piperazin-1-yl)pyrimidine]
0	–	N#Cc1ccc(N2CCN(C(=O)c3cncc(C#Cc4ccccc4)c3)CC2)nc1 [Compound 131, 6-(4-{[5-(phenylethynyl)pyridin-3-yl]carbonyl}piperazin-1-yl)nicotinonitrile]
0	–	O=C(c1cncc(C#Cc2ccccc2)c1)N1CCN(c2ccc(C(F)(F)F)cn2)CC1 [Compound 132, 1-{[5-(phenylethynyl)pyridin-3-yl]carbonyl}-4-[5-(trifluoromethyl)pyridin-2-yl]piperazine]
52	0.651	Cc1ccnc(N2CCN(C(=O)c3cncc(C#Cc4ccccc4)c3)CC2)c1 [Compound 133, 1-(4-methylpyridin-2-yl)-4-{[5-(phenylethynyl)pyridin-3-yl]carbonyl}piperazine]
0	–	O=C(c1cncc(C#Cc2ccccc2)c1)N1CCN(c2ncccc2C(F)(F)F)CC1 [Compound 134, 1-{[5-(phenylethynyl)pyridin-3-yl]carbonyl}-4-[3-(trifluoromethyl)pyridin-2-yl]piperazine]
28	–	N#Cc1cccnc1N1CCN(C(=O)c2cncc(C#Cc3ccccc3)c2)CC1 [Compound 135, 2-(4-{[5-(phenylethynyl)pyridin-3-yl]carbonyl}piperazin-1-yl)nicotinonitrile]
0	–	Cc1cc(C)nc(N2CCN(C(=O)c3cncc(C#Cc4ccccc4)c3)CC2)n1 [Compound 136, 4,6-dimethyl-2-(4-{[5-(phenylethynyl)pyridin-3-yl]carbonyl}piperazin-1-yl)pyrimidine]
32	–	O=C(c1cncc(C#Cc2ccccc2)c1)N1CCN(c2cnccn2)CC1 [Compound 137, 2-(4-{[5-(phenylethynyl)pyridin-3-yl]carbonyl}piperazin-1-yl)pyrazine]
0	–	O=C(c1cncc(C#Cc2ccccc2)c1)N1CCN(c2ccncc2)CC1 [Compound 138, 1-{[5-(phenylethynyl)pyridin-3-yl]carbonyl}-4-pyridin-4-ylpiperazine]
40	–	N#Cc1cccnc1N1CCN(C(=O)c2ccnc(C#Cc3ccccc3)c2)CC1 [Compound 139, 2-{4-[2-(phenylethynyl)isonicotinoyl]piperazin-1-yl}nicotinonitrile]
37	–	Cc1cc(C)nc(N2CCN(C(=O)c3ccnc(C#Cc4ccccc4)c3)CC2)n1 [Compound 140, 4,6-dimethyl-2-{4-[2-(phenylethynyl)isonicotinoyl]piperazin-1-yl}pyrimidine]
